Results on 11 compounds are retold here after ChEMBL document CHEMBL4613208, “Isatin derivatives and their anti-bacterial activities” (Eur J Med Chem, 2019).

The test system of assay [1] is Bacillus subtilis. As to the kind of experiment: Antibacterial activity against Bacillus subtilis assessed as zone of inhibition at 20 mg/ml. The class given is functional. The conditions noted are these: read-out: IZ.
For assay [2], the system named is Pseudomonas aeruginosa. The experiment in a line: Antibacterial activity against Pseudomonas aeruginosa assessed as zone of inhibition at 20 mg/ml. The class given is functional. The settings on record: read-out: IZ.
Assay [3] concerns Staphylococcus aureus. The experiment in a line: Antibacterial activity against Staphylococcus aureus assessed as zone of inhibition at 20 mg/ml. The class given is functional. The settings on record: read-out: IZ.
Assay [4] deals with Escherichia coli. The experiment in a line: Antibacterial activity against Escherichia coli assessed as zone of inhibition at 20 mg/ml. Type of assay: functional. The settings on record: read-out: IZ.
The test system of assay [5] is Bacillus subtilis. The experiment in a line: Antibacterial activity against Bacillus subtilis. The class given is functional.
In the next assay the test system is Shigella flexneri. The experiment in a line: Antibacterial activity against Shigella flexneri. Type of assay: functional.
A further assay deals with Streptococcus pyogenes. The experiment in a line: Antibacterial activity against Streptococcus pyogenes. The class given is functional.
In a further assay the test system is Klebsiella pneumoniae. As to the kind of experiment: Antibacterial activity against Klebsiella pneumoniae. Type of assay: functional.
Assay [6] deals with Staphylococcus aureus. The experiment in a line: Antibacterial activity against Staphylococcus aureus. The class given is functional, organism-based.
The test system of the next assay is Proteus vulgaris. The experiment in a line: Antibacterial activity against Proteus vulgaris. The class given is functional.
The test system of the next assay is Bacillus cereus. As to the kind of experiment: Antibacterial activity against Bacillus cereus after 24 hrs by agar well diffusion technique. Type of assay: functional.
In assay [7] the test system is Shigella dysenteriae. The experiment in a line: Antibacterial activity against Shigella dysenteriae after 24 hrs by agar well diffusion technique. Type of assay: functional. Background: Agar diffusion results depend on both activity and mobility in agar.
Assay [8] relates to Shigella dysenteriae. As to the kind of experiment: Potency index, ratio of MIC for sulfamethoxazole to MIC for test compound for antibacterial activity against Shigella dysenteriae after 24 hrs by agar well diffusion technique. The class given is functional.
The subject of assay [9] is Staphylococcus aureus. As to the kind of experiment: Antibacterial activity against Staphylococcus aureus ATCC 25923 after 24 hrs by agar well diffusion technique. The conditions noted are these: ATCC 25923, 24 h. Type of assay: functional.
Assay [10] has as its system Escherichia coli. As to the kind of experiment: Antibacterial activity against Escherichia coli ATCC 25922 after 24 hrs by agar well diffusion technique. Type of assay: functional. The settings on record: ATCC 25922, 24 h.
Assay [11] deals with Escherichia coli. The experiment in a line: In vivo antibacterial activity against Escherichia coli infected in po dosed mouse. The class given is functional.
In a further assay the test system is Citrobacter freundii. The experiment in a line: Antibacterial activity against Citrobacter freundii. Type of assay: functional.
The subject of another assay is Salmonella typhi. As to the kind of experiment: Antibacterial activity against Salmonella typhi. The class given is functional, Salmonella enterica subsp. enterica serovar Typhi. The settings on record: Salmonella enterica.
Assay [12] has as its system Staphylococcus epidermidis. The experiment in a line: Antibacterial activity against Staphylococcus epidermidis. The class given is functional.
The subject of assay [13] is Escherichia coli. As to the kind of experiment: Antibacterial activity against Escherichia coli. Type of assay: functional, organism-based.
In the next assay the test system is Vibrio cholerae. The experiment in a line: Antibacterial activity against Vibrio cholerae. Type of assay: functional.
Assay [14] deals with Pseudomonas aeruginosa. As to the kind of experiment: Antibacterial activity against Pseudomonas aeruginosa. Type of assay: functional, organism-based.
In assay [15] the test system is Escherichia coli. The experiment in a line: Antibacterial activity against Escherichia coli NCTC 10418. The class given is functional.
In assay [16] the test system is Escherichia coli. As to the kind of experiment: Potency index, ratio of ED50 for norfloxacin to ED50 for test compound for in vivo antibacterial activity against Escherichia coli infected in po dosed mouse. Type of assay: functional.

The structures appear in SMILES notation. Converted amounts (≈) assume the structure as drawn.

On to `CCOC(=O)c1c(NC(C)(C)C)oc(N(C(=O)CN2C(=O)/C(=C3/C(=O)N(CO)c4ccccc43)SC2=S)C(C)(C)C)c1C(=O)OCC`, for which the zone of inhibition at 20000 µg/mL in the assay on Bacillus subtilis [1], with Pseudomonas aeruginosa [2], in the assay with Staphylococcus aureus [3] and in the assay with Escherichia coli [4] was 15.6 to 26 mm each time.
As a reminder, the MIC is the smallest concentration in the dilution series that meets the test's criterion for growth inhibition. Low values mean greater potency, high ones weaker potency. On to `CC1(C)S[C@@H]2[C@H](NC(=O)[C@H](N)c3ccccc3)C(=O)N2[C@H]1C(=O)O` [AMPICILLIN], for which the MIC in the assay on Bacillus subtilis [5], with Shigella flexneri, against Streptococcus pyogenes, in the assay on Klebsiella pneumoniae, in the assay on Staphylococcus aureus [6] and with Proteus vulgaris was 0.007 to 1.95 µg/mL (≈ 0.02 to 5.58 µM) throughout.
Regarding `Cc1ccc2c(c1)/C(=N/c1ccc(S(=O)(=O)Nc3cc(C)on3)cc1)C(=O)N2`, the MIC was 5 µg/mL (≈ 12.6 µM) against Bacillus cereus, 1 µg/mL (≈ 2.52 µM) with Shigella dysenteriae [7], 5 µg/mL (≈ 12.6 µM) in the assay on Staphylococcus aureus [9] and 5 µg/mL (≈ 12.6 µM) in the assay on Escherichia coli [10]. Further, the Ratio in the assay on Shigella dysenteriae [8] was found to be 2.5.
On to `COC(=O)c1c(NC(C)(C)C)oc(N(C(=O)CN2C(=O)/C(=C3/C(=O)N(CC(=O)N(c4oc(NC(C)(C)C)c(C(=O)OC(C)(C)C)c4C(=O)OC(C)(C)C)C(C)(C)C)c4ccccc43)SC2=S)C(C)(C)C)c1C(=O)OC`, for which the zone of inhibition at 20000 µg/mL in the assay with Bacillus subtilis [1], in the assay with Pseudomonas aeruginosa [2], in the assay on Staphylococcus aureus [3] and in the assay on Escherichia coli [4] was 15.6 to 26 mm in each case.
For orientation: ED50 means the dose that gives a 50% effect, or the effect in half of the subjects. Read a low ED50 as greater potency. Compound `CCn1cc(C(=O)O)c(=O)c2cc(F)c(N3CCNCC3)cc21` [NORFLOXACIN] returned an ED50 with Escherichia coli [11] of 6 mg/kg.
Take `CCOC(=O)CN1C(=O)/C(=C2\SC(=S)N(CC(=O)N(c3oc(NC(C)(C)C)c(C(=O)OC)c3C(=O)OC)C(C)(C)C)C2=O)c2cc(Cl)ccc21`: the zone of inhibition at 20000 µg/mL with Bacillus subtilis [1], in the assay on Pseudomonas aeruginosa [2], in the assay on Staphylococcus aureus [3] and with Escherichia coli [4] was 15.6 to 26 mm each time.
In the case of `O=C1C(=O)N(CN2CCN(c3cc4c(cc3F)c(=O)c(C(=O)O)cn4C3CC3)CC2)c2ccccc21`, the MIC (against Shigella flexneri; with Citrobacter freundii; in the assay on Salmonella typhi; in [12]; against Klebsiella pneumoniae; against Staphylococcus aureus [6]) was 0.1 to 0.5 µg/mL (≈ 0.204 to 1.02 µM) throughout. For the same compound, the MIC in the assay with Escherichia coli [13], against Vibrio cholerae and with Pseudomonas aeruginosa [14] was 0.1 to 0.5 µg/mL (≈ 0.204 to 1.02 µM) throughout.
Consider `CCn1cc(C(=O)O)c(=O)c2cc(F)c(N3CCN(CN4C(=O)/C(=N\c5ncc(Cc6cc(OC)c(OC)c(OC)c6)c(N)n5)c5cc(Br)ccc54)CC3)cc21`, for which, in the assay on Escherichia coli [15], the MIC was under 1 µg/mL. For the same compound, the “Ratio ED50” value with Escherichia coli [16] is over 3.7.
Regarding `Cc1cc(NS(=O)(=O)c2ccc(/N=C3\C(=O)N(CO)c4ccccc43)cc2)no1`, the MIC against Bacillus cereus, with Shigella dysenteriae [7], in the assay with Staphylococcus aureus [9] and in the assay with Escherichia coli [10] was 1 to 15 µg/mL (≈ 2.42 to 36.4 µM) each time.
Regarding `Cc1ccc2c(c1)C(=O)C(=O)N2CN1CCN(c2cc3c(cc2F)c(=O)c(C(=O)O)cn3C2CC2)CC1`, the MIC (in the assay on Shigella flexneri; against Citrobacter freundii; against Salmonella typhi; in [12]; in the assay with Klebsiella pneumoniae; against Staphylococcus aureus [6]) was 0.1 to 0.5 µg/mL (≈ 0.198 to 0.991 µM) each time. In addition, the MIC against Escherichia coli [13], in the assay with Vibrio cholerae and in the assay on Pseudomonas aeruginosa [14] was 0.1 to 0.5 µg/mL (≈ 0.198 to 0.991 µM) in each case.
In the case of `Cc1ccc2c(c1)/C(=N/c1nc3ccccc3[nH]1)C(=O)N2`, the MIC in the assay on Bacillus cereus, in the assay on Shigella dysenteriae [7], in the assay with Staphylococcus aureus [9] and against Escherichia coli [10] was 1 to 15 µg/mL (≈ 3.62 to 54.3 µM) in each case.
